From the kinase profiling compilation of Christmann-Franck et al. (2016)

Legend:
Test in all cases: radiometric filter-binding kinase assay, Kinase HotSpot
Conditions in all cases: compound 0.5 µM; ATP 10 µM
ROS1 (human) = ROS1 (human) (UniProt P08922)
ZAP70 (human) = ZAP70 (human) (UniProt P43403)
PLK2 (human) = PLK2 (human) (UniProt Q9NYY3)
MINK1 (human) = MINK1 (human) (UniProt Q8N4C8)
CDK5 CDK5R1 p35 (human) = CDK5 CDK5R1 p35 (human) (UniProt Q00535+Q15078)
MAP3K8 (human) = MAP3K8 (human) (UniProt P41279)
CDK7 CCNH MNAT1 (human) = CDK7 CCNH MNAT1 (human) (UniProt P50613+P51948+P51946)
LCK (human) = LCK (human) (UniProt P06239)
CDK6 CCND1 (human) = CDK6 CCND1 (human) (UniProt Q00534+P24385)
ACVR1B (human) = ACVR1B (human) (UniProt P36896)
PAK6 (human) = PAK6 (human) (UniProt Q9NQU5)
FGFR1 (human) = FGFR1 (human) (UniProt P11362)
PRKCD (human) = PRKCD (human) (UniProt Q05655)
ERBB4 (human) = ERBB4 (human) (UniProt Q15303)
TEC (human) = TEC (human) (UniProt P42680)
CLK1 (human) = CLK1 (human) (UniProt P49759)
KIT (human) = KIT (human) (UniProt P10721)
MAP3K3 (human) = MAP3K3 (human) (UniProt Q99759)
PIM2 (human) = PIM2 (human) (UniProt Q9P1W9)
CSNK1G1 (human) = CSNK1G1 (human) (UniProt Q9HCP0)
MUSK (human) = MUSK (human) (UniProt O15146)
MAPK13 (human) = MAPK13 (human) (UniProt O15264)
AURKC (human) = AURKC (human) (UniProt Q9UQB9)
NEK3 (human) = NEK3 (human) (UniProt P51956)
[1] = target: TYK2 JH1 catalytic (human) (UniProt P29597)
ROCK2 (human) = ROCK2 (human) (UniProt O75116)
TEK (human) = TEK (human) (UniProt Q02763)
AKT2 (human) = AKT2 (human) (UniProt P31751)
MAPK3 (human) = MAPK3 (human) (UniProt P27361)
TNK2 (human) = TNK2 (human) (UniProt Q07912)
PDGFRB (human) = PDGFRB (human) (UniProt P09619)
CDK2 CCNA2 (human) = CDK2 CCNA2 (human) (UniProt P24941+P20248)
FER (human) = FER (human) (UniProt P16591)
TYRO3 (human) = TYRO3 (human) (UniProt Q06418)
DMPK (human) = DMPK (human) (UniProt Q09013)
PHKG2 (human) = PHKG2 (human) (UniProt P15735)
FLT1 (human) = FLT1 (human) (UniProt P17948)
EPHA4 (human) = EPHA4 (human) (UniProt P54764)
STK25 (human) = STK25 (human) (UniProt O00506)
GRK5 (human) = GRK5 (human) (UniProt P34947)
DAPK3 (human) = DAPK3 (human) (UniProt O43293)
CSF1R (human) = CSF1R (human) (UniProt P07333)

Sequence of PRKCD (human) (Q05655 whole entry, looked up): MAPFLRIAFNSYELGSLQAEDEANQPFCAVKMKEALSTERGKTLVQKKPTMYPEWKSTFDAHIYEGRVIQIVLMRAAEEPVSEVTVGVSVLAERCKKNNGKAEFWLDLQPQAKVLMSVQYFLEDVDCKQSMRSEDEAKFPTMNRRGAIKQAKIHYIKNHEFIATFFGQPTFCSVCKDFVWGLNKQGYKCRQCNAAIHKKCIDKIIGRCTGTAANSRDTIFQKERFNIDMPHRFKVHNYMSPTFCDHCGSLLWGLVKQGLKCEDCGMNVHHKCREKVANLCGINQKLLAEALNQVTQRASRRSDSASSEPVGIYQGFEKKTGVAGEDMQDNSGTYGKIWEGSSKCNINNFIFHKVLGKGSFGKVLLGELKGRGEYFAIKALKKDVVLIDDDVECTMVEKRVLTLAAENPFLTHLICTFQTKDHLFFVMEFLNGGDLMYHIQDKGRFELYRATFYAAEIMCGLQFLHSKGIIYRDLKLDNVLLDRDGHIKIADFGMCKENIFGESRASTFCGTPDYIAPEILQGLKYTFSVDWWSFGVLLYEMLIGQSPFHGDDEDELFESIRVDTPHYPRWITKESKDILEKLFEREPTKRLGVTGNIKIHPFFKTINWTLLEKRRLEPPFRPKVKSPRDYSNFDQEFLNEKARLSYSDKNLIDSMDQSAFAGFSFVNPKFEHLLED
Sequence of ROS1 (human) (P08922 whole entry, looked up): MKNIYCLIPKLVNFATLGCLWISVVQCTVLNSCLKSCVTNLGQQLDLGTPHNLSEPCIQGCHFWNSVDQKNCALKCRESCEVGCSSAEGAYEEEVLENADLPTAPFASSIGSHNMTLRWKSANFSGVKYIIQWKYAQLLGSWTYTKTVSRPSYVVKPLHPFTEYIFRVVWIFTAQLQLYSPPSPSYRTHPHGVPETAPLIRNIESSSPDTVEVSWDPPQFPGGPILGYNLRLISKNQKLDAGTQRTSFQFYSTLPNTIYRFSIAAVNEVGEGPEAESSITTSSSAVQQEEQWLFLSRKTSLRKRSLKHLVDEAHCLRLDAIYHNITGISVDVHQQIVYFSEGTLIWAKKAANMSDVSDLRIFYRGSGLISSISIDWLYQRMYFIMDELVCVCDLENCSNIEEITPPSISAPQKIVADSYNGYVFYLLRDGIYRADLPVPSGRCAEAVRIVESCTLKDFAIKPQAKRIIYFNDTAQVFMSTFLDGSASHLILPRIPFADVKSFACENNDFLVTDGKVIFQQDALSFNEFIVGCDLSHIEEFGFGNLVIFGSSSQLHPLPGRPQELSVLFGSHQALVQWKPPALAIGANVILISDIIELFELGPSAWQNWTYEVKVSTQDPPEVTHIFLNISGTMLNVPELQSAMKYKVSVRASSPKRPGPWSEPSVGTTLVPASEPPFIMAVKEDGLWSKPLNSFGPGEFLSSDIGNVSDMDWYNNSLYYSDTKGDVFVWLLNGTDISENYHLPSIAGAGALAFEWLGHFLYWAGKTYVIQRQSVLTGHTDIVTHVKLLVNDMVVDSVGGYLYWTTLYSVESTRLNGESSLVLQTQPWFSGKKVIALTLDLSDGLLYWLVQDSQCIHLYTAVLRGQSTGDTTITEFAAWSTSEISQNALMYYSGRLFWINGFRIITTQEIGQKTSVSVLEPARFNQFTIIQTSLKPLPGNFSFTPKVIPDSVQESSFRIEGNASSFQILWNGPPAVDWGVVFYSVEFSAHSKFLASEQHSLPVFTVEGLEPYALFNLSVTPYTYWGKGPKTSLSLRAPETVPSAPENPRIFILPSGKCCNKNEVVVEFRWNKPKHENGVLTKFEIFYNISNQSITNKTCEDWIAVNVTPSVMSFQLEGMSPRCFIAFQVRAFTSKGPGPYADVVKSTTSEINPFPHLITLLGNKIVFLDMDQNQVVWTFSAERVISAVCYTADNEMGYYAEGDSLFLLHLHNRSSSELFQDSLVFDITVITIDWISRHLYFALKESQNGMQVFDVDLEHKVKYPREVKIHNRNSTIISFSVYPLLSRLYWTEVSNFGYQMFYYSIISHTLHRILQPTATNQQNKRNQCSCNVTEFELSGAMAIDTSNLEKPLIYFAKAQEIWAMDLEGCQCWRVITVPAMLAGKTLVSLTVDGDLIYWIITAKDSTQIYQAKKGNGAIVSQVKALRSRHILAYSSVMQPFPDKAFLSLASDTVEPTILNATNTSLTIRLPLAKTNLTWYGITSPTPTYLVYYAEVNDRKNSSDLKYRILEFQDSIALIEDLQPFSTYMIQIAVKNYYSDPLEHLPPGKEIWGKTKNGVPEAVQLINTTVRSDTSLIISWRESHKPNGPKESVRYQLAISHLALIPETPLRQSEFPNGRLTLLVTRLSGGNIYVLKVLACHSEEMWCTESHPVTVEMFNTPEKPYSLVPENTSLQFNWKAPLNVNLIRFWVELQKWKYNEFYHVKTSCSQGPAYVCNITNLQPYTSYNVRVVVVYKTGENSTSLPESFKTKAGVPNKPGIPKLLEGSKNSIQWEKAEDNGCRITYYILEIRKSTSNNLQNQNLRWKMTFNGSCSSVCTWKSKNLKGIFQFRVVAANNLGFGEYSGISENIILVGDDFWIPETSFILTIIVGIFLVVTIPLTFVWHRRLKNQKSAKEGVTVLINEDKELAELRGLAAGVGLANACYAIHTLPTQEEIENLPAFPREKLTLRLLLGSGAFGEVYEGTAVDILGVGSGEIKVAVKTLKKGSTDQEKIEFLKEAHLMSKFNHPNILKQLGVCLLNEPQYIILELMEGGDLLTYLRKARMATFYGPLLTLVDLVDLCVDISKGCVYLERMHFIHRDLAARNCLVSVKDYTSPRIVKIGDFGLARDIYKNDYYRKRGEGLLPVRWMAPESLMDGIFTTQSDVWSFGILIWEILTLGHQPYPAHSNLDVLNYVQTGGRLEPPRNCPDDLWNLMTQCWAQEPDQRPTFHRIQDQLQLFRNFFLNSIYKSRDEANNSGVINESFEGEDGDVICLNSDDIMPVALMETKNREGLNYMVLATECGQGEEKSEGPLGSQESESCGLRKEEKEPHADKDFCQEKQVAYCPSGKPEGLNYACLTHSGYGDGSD
Sequence of ZAP70 (human) (P43403 whole entry, looked up): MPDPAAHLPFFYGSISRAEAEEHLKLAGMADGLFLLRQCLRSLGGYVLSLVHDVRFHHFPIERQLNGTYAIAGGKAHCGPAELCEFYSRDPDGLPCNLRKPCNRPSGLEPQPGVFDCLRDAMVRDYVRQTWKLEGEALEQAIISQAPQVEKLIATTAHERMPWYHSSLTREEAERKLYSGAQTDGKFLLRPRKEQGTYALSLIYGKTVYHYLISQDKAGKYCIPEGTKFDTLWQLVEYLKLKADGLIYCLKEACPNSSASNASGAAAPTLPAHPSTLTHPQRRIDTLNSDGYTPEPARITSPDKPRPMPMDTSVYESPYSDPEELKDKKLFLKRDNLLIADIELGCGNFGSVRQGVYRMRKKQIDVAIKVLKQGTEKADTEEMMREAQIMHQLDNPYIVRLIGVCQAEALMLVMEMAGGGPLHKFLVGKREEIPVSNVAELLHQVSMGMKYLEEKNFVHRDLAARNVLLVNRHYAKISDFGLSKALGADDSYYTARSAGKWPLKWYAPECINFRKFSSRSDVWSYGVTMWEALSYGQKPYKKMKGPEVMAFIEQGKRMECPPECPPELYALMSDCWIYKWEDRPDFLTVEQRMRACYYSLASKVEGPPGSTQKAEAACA
Sequence of MINK1 (human) (Q8N4C8 whole entry, looked up): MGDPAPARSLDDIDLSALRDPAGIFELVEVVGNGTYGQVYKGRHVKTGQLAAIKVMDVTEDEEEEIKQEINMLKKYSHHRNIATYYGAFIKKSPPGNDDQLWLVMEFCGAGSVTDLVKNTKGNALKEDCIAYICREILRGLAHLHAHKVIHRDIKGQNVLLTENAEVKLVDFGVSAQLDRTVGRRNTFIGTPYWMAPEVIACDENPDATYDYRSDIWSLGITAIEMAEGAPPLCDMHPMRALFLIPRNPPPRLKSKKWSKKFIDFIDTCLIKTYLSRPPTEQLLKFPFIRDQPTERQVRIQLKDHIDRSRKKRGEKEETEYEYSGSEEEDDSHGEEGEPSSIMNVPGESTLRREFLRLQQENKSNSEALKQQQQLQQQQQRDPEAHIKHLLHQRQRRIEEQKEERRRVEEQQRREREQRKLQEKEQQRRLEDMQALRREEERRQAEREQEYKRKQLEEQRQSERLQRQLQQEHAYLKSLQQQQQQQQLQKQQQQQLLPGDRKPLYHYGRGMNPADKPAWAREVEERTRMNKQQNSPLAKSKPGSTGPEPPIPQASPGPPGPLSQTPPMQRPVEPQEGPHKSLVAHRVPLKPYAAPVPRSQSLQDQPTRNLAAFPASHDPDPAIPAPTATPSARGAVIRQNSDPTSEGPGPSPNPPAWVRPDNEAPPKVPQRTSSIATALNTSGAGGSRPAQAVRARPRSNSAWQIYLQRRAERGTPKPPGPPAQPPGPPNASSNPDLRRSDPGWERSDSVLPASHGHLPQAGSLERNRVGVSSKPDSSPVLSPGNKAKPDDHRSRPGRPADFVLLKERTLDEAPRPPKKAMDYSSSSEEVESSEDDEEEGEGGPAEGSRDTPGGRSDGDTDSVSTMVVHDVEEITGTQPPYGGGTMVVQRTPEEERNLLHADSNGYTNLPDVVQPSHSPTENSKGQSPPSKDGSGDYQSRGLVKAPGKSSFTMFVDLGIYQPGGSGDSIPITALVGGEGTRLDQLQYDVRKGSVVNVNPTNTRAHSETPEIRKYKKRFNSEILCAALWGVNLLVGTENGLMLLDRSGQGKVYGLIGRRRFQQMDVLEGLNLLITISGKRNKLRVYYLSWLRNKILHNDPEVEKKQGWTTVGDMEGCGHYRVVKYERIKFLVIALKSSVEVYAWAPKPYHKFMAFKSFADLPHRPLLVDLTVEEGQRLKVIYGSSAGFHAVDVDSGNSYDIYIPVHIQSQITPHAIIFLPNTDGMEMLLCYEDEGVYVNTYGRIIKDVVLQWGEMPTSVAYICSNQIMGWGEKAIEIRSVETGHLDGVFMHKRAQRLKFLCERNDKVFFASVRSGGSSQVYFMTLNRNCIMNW

What does the source list for `CN(C)C[C@H]1CCn2c(c(C3=C(c4cn(C)c5ccccc45)C(=O)NC3=O)c3ccccc32)C1`?
residual activity (ROS1 (human)): 87.1%; residual activity (ZAP70 (human)): 105%; residual activity (PLK2 (human)): 99.9%; residual activity (MINK1 (human)): 97.8%; residual activity (CDK5 CDK5R1 p35 (human)): 85.4%; residual activity (MAP3K8 (human)): 95%; residual activity (CDK7 CCNH MNAT1 (human)): 83%; residual activity (LCK (human)): 96.5%; residual activity (CDK6 CCND1 (human)): 70.5%; residual activity (ACVR1B (human)): 98.2%; residual activity (PAK6 (human)): 114%; residual activity (FGFR1 (human)): 87.8%; residual activity (PRKCD (human)): 8.11%; residual activity (ERBB4 (human)): 84.3%; residual activity (TEC (human)): 108%; residual activity (CLK1 (human)): 105%; residual activity (KIT (human)): 92.7%; residual activity (MAP3K3 (human)): 86.1%; residual activity (PIM2 (human)): 102%; residual activity (CSNK1G1 (human)): 97%; residual activity (MUSK (human)): 85.6%; residual activity (MAPK13 (human)): 117%; residual activity (AURKC (human)): 93.1%; residual activity (NEK3 (human)): 99.4%; residual activity [1]: 104%; residual activity (ROCK2 (human)): 98.9%; residual activity (TEK (human)): 98.4%; residual activity (AKT2 (human)): 92.6%; residual activity (MAPK3 (human)): 102%; residual activity (TNK2 (human)): 96.3%; residual activity (PDGFRB (human)): 102%; residual activity (CDK2 CCNA2 (human)): 76.2%; residual activity (FER (human)): 69.2%; residual activity (TYRO3 (human)): 99.3%; residual activity (DMPK (human)): 106%; residual activity (PHKG2 (human)): 104%; residual activity (FLT1 (human)): 91.3%; residual activity (EPHA4 (human)): 103%; residual activity (STK25 (human)): 96%; residual activity (GRK5 (human)): 56.2%; residual activity (DAPK3 (human)): 95.2%; residual activity (CSF1R (human)): 98.1%

What does the source list for `O=C1NC(=O)C(c2cn(CCCO)c3ncccc23)=C1c1cnccn1`?
residual activity (ROS1 (human)): 106%; residual activity (ZAP70 (human)): 87.8%; residual activity (PLK2 (human)): 104%; residual activity (MINK1 (human)): 84.8%; residual activity (CDK5 CDK5R1 p35 (human)): 73.9%; residual activity (MAP3K8 (human)): 97%; residual activity (CDK7 CCNH MNAT1 (human)): 96.9%; residual activity (LCK (human)): 95.8%; residual activity (CDK6 CCND1 (human)): 83.4%; residual activity (ACVR1B (human)): 100%; residual activity (PAK6 (human)): 78.2%; residual activity (FGFR1 (human)): 81.2%; residual activity (PRKCD (human)): 97%; residual activity (ERBB4 (human)): 115%; residual activity (TEC (human)): 120%; residual activity (CLK1 (human)): 88.5%; residual activity (KIT (human)): 93%; residual activity (MAP3K3 (human)): 88.3%; residual activity (PIM2 (human)): 92.7%; residual activity (CSNK1G1 (human)): 101%; residual activity (MUSK (human)): 67.1%; residual activity (MAPK13 (human)): 96.5%; residual activity (AURKC (human)): 113%; residual activity (NEK3 (human)): 97.5%; residual activity [1]: 96.9%; residual activity (ROCK2 (human)): 96%; residual activity (TEK (human)): 103%; residual activity (AKT2 (human)): 114%; residual activity (MAPK3 (human)): 94.5%; residual activity (TNK2 (human)): 90.7%; residual activity (PDGFRB (human)): 102%; residual activity (CDK2 CCNA2 (human)): 94.8%; residual activity (FER (human)): 99.2%; residual activity (TYRO3 (human)): 93.7%; residual activity (DMPK (human)): 99.6%; residual activity (PHKG2 (human)): 102%; residual activity (FLT1 (human)): 89.4%; residual activity (EPHA4 (human)): 99.5%; residual activity (STK25 (human)): 78.9%; residual activity (GRK5 (human)): 116%; residual activity (DAPK3 (human)): 80.2%; residual activity (CSF1R (human)): 98.4%

For `O=C1NC(=O)/C(=C\c2ccc3nccnc3c2)S1`, which residual activity (ROS1 (human)) is on record?
The residual activity was 92.3%.

And the residual activity (ZAP70 (human))?
Its residual activity is 92.4%.

And the residual activity (PLK2 (human))?
The residual activity was 95.7%.

What about the residual activity (MINK1 (human)) of the same compound?
The residual activity was 88.3%.

What about the residual activity (CDK5 CDK5R1 p35 (human)) of the same compound?
Its residual activity is 97.9%.

What about the residual activity (MAP3K8 (human)) of the same compound?
The residual activity was 99.6%.

And the residual activity (CDK7 CCNH MNAT1 (human))?
The residual activity was 85.2%.

What about the residual activity (LCK (human)) of the same compound?
Its residual activity is 98.6%.

And the residual activity (CDK6 CCND1 (human))?
The residual activity was 97.5%.

What about the residual activity (ACVR1B (human)) of the same compound?
Its residual activity is 109%.

What about the residual activity (PAK6 (human)) of the same compound?
The residual activity was 107%.

And the residual activity (FGFR1 (human))?
The residual activity was 88.5%.

And the residual activity (PRKCD (human))?
The residual activity was 94.4%.

What about the residual activity (ERBB4 (human)) of the same compound?
Its residual activity is 99.4%.

And the residual activity (TEC (human))?
Its residual activity is 117%.

What about the residual activity (CLK1 (human)) of the same compound?
The residual activity was 80.1%.

What about the residual activity (KIT (human)) of the same compound?
The residual activity was 87.5%.

What about the residual activity (MAP3K3 (human)) of the same compound?
Its residual activity is 100%.

What about the residual activity (PIM2 (human)) of the same compound?
Its residual activity is 100%.

What about the residual activity (CSNK1G1 (human)) of the same compound?
Its residual activity is 101%.

What about the residual activity (MUSK (human)) of the same compound?
The residual activity was 16.2%.

What about the residual activity (MAPK13 (human)) of the same compound?
The residual activity was 99.1%.

And the residual activity (AURKC (human))?
The residual activity was 95.6%.

What about the residual activity (NEK3 (human)) of the same compound?
Its residual activity is 97.3%.

And the residual activity [1]?
The residual activity was 85.2%.

And the residual activity (ROCK2 (human))?
Its residual activity is 91.3%.

What about the residual activity (TEK (human)) of the same compound?
The residual activity was 89.5%.

And the residual activity (AKT2 (human))?
The residual activity was 101%.

And the residual activity (MAPK3 (human))?
Its residual activity is 87.8%.

And the residual activity (TNK2 (human))?
The residual activity was 91.4%.

And the residual activity (PDGFRB (human))?
Its residual activity is 99.5%.

What about the residual activity (CDK2 CCNA2 (human)) of the same compound?
The residual activity was 99.7%.

What about the residual activity (FER (human)) of the same compound?
The residual activity was 96.2%.

And the residual activity (TYRO3 (human))?
Its residual activity is 99.1%.

And the residual activity (DMPK (human))?
The residual activity was 112%.

And the residual activity (PHKG2 (human))?
The residual activity was 97.4%.

And the residual activity (FLT1 (human))?
Its residual activity is 87.5%.

And the residual activity (EPHA4 (human))?
Its residual activity is 96%.

And the residual activity (STK25 (human))?
Its residual activity is 99.3%.

And the residual activity (GRK5 (human))?
The residual activity was 105%.

What about the residual activity (DAPK3 (human)) of the same compound?
Its residual activity is 93.3%.

And the residual activity (CSF1R (human))?
The residual activity was 110%.
